# Experimental data published in PubChem BioAssay AID624491 (Broad Institute, 2012).
# Activity calls are given as the source filed them.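 Rule for the calls: active = fitted curve crossing a set activation limit at or below the highest valid dose tested; inconclusive = flat fit at 30 to 70% activation, or poor fit; inactive = the rest, including signal decreases.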
# Tested on: D54 ERlucT glycosylation luciferase reporter, luminescence, 24 h
# Assay: blockers of NLG process in reporter cells – D54 ERlucT cells, luminescence, cherry-picks, dose response (AID 624491);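 note: signal gain reflects blocked N-linked glycosylation of a luciferase reporter; actives raise luciferase signal so AC26 marks activators of the reporter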
row,SMILES,AC26
1,COc1ccc(NC(=O)c2cc(S(=O)(=O)N(C)C)ccc2N2CCCC2)cc1Cl,4800 nM
2,COc1ccccc1-c1cc(C(=O)Nc2cc(C)nn2-c2ccccc2)no1,760 nM
3,CC(=O)c1cccc(-c2ccnc3c2CC(C(=O)NCc2cccs2)O3)c1 (centres undefined),1070 nM
4,CC(=O)Nc1cccc(-c2ccnc3c2CC(C)(C(=O)NCCc2ccccc2)O3)c1 (centres undefined),1370 nM
5,CC(C)CCNC(=O)CCCOc1cc(=O)n(C)c2ccccc12,4270 nM
6,NNC(=O)c1nc(-c2ccccc2)cc(-c2ccccc2)n1,2320 nM
7,O=C(NC1CCCCCC1)c1c2c(nc3ccccc13)CCN(Cc1ccccc1)C2,5800 nM
8,COC(=O)c1cn(C(=O)c2cccc3ccccc23)c2ccccc12,928 nM
9,Cc1ccc2nc(/C(C#N)=C/c3cn[nH]c3-c3ccc(F)cc3)[nH]c2c1,1170 nM
10,CCNc1nc(NC(C)(C)C)nc(SC(C(C)=O)C(C)=O)n1,208 nM
11,COc1ccc(CCn2c(=N)c(C(=O)NCCN3CCOCC3)cc3c(=O)n4cccc(C)c4nc32)cc1OC,739 nM
12,COc1ccc(-c2cc3ccccc3oc2=O)cc1NC(=O)c1ccc([N+](=O)[O-])o1,751 nM
13,Cn1c(-c2ccccc2)c(/C=N/NC(=O)c2cccnc2)c2ccccc21,247 nM
14,COc1cccc(-c2cnc3c(NC(C)=O)cc(-c4cc(F)ccc4OC)cn23)c1,1600 nM
15,Cc1cc(=O)oc2cc(OCC(=O)N3c4ccccc4CC3C)ccc12 (centres undefined),1090 nM
16,Cc1nnc2c(NC3CCCC3)nc3ccccc3n12,5060 nM
17,O=S(=O)([N-]c1nc2ccccc2nc1-n1cc[n+](Cc2ccccc2)c1)c1ccc(Cl)cc1,101 nM
18,COC(=O)Nc1nc(C)c(C(=O)c2ccccc2)s1,7950 nM
19,COc1cc(/C=C2/CCC/C(=C\c3cc(O)c(OC)c(Cl)c3)C2=O)cc(Cl)c1O,2230 nM
20,O=c1cc(-c2ccccc2)nc2cc(-c3ccc(F)cc3)[nH]n12,4270 nM
21,COc1ccc(/C=N/NC(=O)c2cccc(NC(=O)c3ccccc3Cl)c2)cc1,5130 nM
22,CC(C)(C)NCC(O)CON=C1c2ccccc2-c2ccccc21 (centres undefined),5310 nM

row,SMILES,AC26
1,CCn1c2ccccc2c2cc(NC(=O)COC(=O)c3ccccc3F)ccc21,4200 nM
2,COc1ccc(Nc2nc(-c3c(C)nc4ncccn34)cs2)cc1,17.2 nM
3,CN=C(SCC(=O)c1cccc(Cl)c1)c1c(O)n(C)c(=O)n(C)c1=O,2590 nM
4,O=c1cc(-c2ccc(O)cc2)oc2cc(O)c(C3OC(CO)C(O)C(O)C3O)c(O)c12 (centres undefined),690 nM
5,Cc1[nH][nH]c(=O)c1C(c1ccc(-c2ccc(F)cc2)o1)c1c(C)[nH][nH]c1=O,4090 nM
6,Cc1ccc(CNC(=O)Cc2ccc(Br)cc2)cc1,6690 nM
7,Nc1c(N(CCC2=CCCCC2)C(=O)COc2ccc(F)cc2Cl)c(=O)[nH]c(=O)n1Cc1ccccc1,1070 nM
8,Cc1ccc(OC(=O)CCC(=O)Oc2ccc(C)cc2C)c(C)c1,> 19500 nM (inactive)
9,Cc1cc2c(cc(C(=O)OCC(=O)NCc3ccco3)n2C)s1,198 nM
10,CCOC(=O)c1ccc(/C=C2/C=C(c3ccccc3)N(c3ccc(Cl)c(C(=O)O)c3)C2=O)cc1,1840 nM
11,C[C@@]12C(=O)Nc3cc(F)ccc3C(=O)N1[C@H]1c3ccccc3OC[C@@H]1[C@@H]2c1ccccc1,1870 nM
12,COc1ccc2c(c1)c(C(=O)N/N=C/c1ccc(Br)cc1)c(C)n2C,17100 nM
13,COc1ccc(C(=O)/C=C/c2ccc(OC(=O)c3cc(OC)c(OC)c(OC)c3)cc2)cc1,3740 nM
14,COc1cc(NC(C(=O)Nc2cccc(C(C)=O)c2)c2ccccc2)cc(OC)c1OC (centres undefined),890 nM
15,COc1cc(C)cc(C(=O)C=Cc2ccccc2)c1O,4920 nM
16,Cc1cc(NS(=O)(=O)c2ccc(NC(=O)COc3c(C)cc(Br)cc3C)cc2)no1,550 nM
17,COc1ccc([C@@H]2[C@@H]3C(=O)N(C(C)(C)C)C(=O)[C@@H]3[C@]3(Cc4ccccc4)C(=O)N(c4cccc(Br)c4)C(=O)N23)cc1,1600 nM
18,Cc1cc(Sc2ccc([N+](=O)[O-])cn2)ccc1Br,6940 nM
19,CCNc1oc(/C=C/c2ccc(OCC)cc2)nc1C#N,> 19500 nM (inactive)
20,Cc1cccc2cc(/C=C/C(=O)c3ccco3)c(Cl)nc12,3830 nM
21,COc1ccc(Nc2oc(-c3ccc(Cl)cc3)nc2C#N)cc1,348 nM
22,Cc1cccc([C@@H]2[C@@H]3C(=O)N(Cc4ccccc4)C(=O)[C@@H]3[C@]3(Cc4ccccc4)C(=O)N(c4cccc(F)c4)C(=O)N23)c1,11400 nM

row,SMILES,AC26
1,COc1cc2ccccc2cc1C(=O)N/N=C/c1cccs1,232 nM
2,O=S(=O)(Cc1ccc(Cl)cc1Cl)c1ccc(Cl)cc1,234 nM
3,CC(=O)c1ccc(Oc2cc(C)nc(-n3nc(C)cc3C)n2)cc1,726 nM
4,O=C(C=Cc1ccccc1O)c1ccccc1O,2850 nM
5,COc1cc(/C=N\NC(=O)c2sc(N)nc2C)cc(OC)c1OC,3140 nM
6,Cc1[nH]nc2c1C(c1cccc(O)c1)C1=C(CC(C)(C)CC1=O)N2 (centres undefined),1870 nM
7,CC(O)CN=c1cc(-c2ccccc2)oc2ccc(Cl)cc12 (centres undefined),1150 nM
8,CCn1c2ccccc2c2cc(NC(=O)COC(=O)c3cc(S(N)(=O)=O)c(Cl)cc3Cl)ccc21,3710 nM
9,COc1cc2nc(N(C)C)nc(N)c2cc1OC,3660 nM
10,COc1ccc(CCn2c(=N)c(C(=O)NCc3ccco3)cc3c(=O)n4ccccc4nc32)cc1,2810 nM
11,Cc1noc(C)c1COc1ccc(C(=O)NNC(=O)c2ccccc2F)cc1,33.4 nM
12,COc1cc(-c2nc(-c3ccccc3)c(-c3cccs3)[nH]2)cc(OC)c1O,6100 nM
13,Cn1c(=O)n(C)c2cc(NS(=O)(=O)c3ccccc3)ccc21,3430 nM
14,O=C(Cc1ccc(-c2ccccc2)cc1)NCc1ccccc1,27.8 nM
15,O=C1Nc2ccccc2/C1=C/c1nc2ccccc2c(=O)n1-c1ccc(O)cc1,11500 nM
16,CC(=O)Nc1cccc(-c2ccnc3c2CC(C)(C(=O)NCc2ccco2)O3)c1 (centres undefined),617 nM
17,Cc1noc(C)c1COc1cccc(C(=O)OC(C)C(=O)Nc2ccc3c(c2)OCO3)c1 (centres undefined),40.4 nM
18,C(=C\c1nccc2c1[nH]c1ccccc12)/c1ccccc1,4680 nM
19,COc1cc2c(cc1OC)C(=O)N1[C@H]3c4cc(C)ccc4OC[C@@H]3[C@H](c3ccccc3)[C@]1(C)C(=O)N2,387 nM
20,Cn1c(=O)n(C)c2cc(NS(=O)(=O)c3ccc(C(C)(C)C)cc3)ccc21,9340 nM
21,COc1ccc(CCCC(=O)NCc2ccccc2)cc1C,6540 nM
22,Cc1nn(C(C)(C)C)c(OC(=O)c2ccc3c(c2)OCO3)c1Sc1ccccc1,3070 nM

row,SMILES,AC26
1,NC1(C(=O)O)CSSC1,221 nM
2,O=C(NCCCN1CCOCC1)c1cc(-c2ccc(F)cc2)on1,14000 nM
3,Cc1cc(NC(=O)CSc2nc3sc(C)c(C)c3c(=O)n2C2CCCC2)no1,4700 nM
4,CCOc1cc(CNc2ccc3cn[nH]c3c2)ccc1OC,1550 nM
5,O=C(Nc1nc2ccccc2c(=O)s1)c1ccco1,653 nM
6,Cc1cc(=O)oc2cc(NC(=O)c3cccc(S(C)(=O)=O)c3)ccc12,2310 nM
7,Cc1ccc(N2C(=O)NC(=O)/C(=C\C=C\c3ccco3)C2=O)cc1C,875 nM
8,Cc1cc(=O)[nH]c2c(C)cc(S(=O)(=O)N3CCCCC3)cc12,4410 nM
9,CC(=O)C1=C(C)OC(N)=C(C#N)C1c1cc([N+](=O)[O-])ccc1Cl (centres undefined),2900 nM
10,O=C(CCl)Nc1cccc(S(=O)(=O)NC2=NCCC2)c1,939 nM
11,CCc1ccc(/C=N/NC(=O)c2nnn(-c3nonc3N)c2C(C)C)cc1,6420 nM
12,Cn1c(=O)[nH]c(=O)c2c1nc(SCC(N)=O)n2Cc1cccc(Br)c1,660 nM
13,Cn1ncc2c(O/N=C(\N)c3ccc(C(F)(F)F)cc3)ncnc21,445 nM
14,Cc1ccc(NC(=O)C(Cc2ccccc2)N2C(=O)C3C4CCC(C4)C3C2=O)cc1Cl (centres undefined),3240 nM
15,CCC12CCC3c4ccc(O)cc4CCC3C1CC(O)C2O (centres undefined),10000 nM
16,COc1ccccc1NC(=O)/C=C/c1ccc2c(c1)OCO2,3780 nM
17,Cc1cccc(C)c1OCCNC(=O)C(=O)NCc1ccco1,1710 nM
18,CN(C)CCNc1ccc2nnn3c4ccc(O)cc4c(=O)c1c23,52 nM
19,COc1ccc(C2Nc3ccc4ccccc4c3-c3c2c(=O)oc2ccccc32)cc1 (centres undefined),2070 nM
20,COc1ccc(C(=O)c2cc(OC)c(OC)c(OC)c2)cc1OC,1250 nM
21,COc1ccc(CCn2c(=N)c(C(=O)NCC3CCCO3)cc3c(=O)n4cccc(C)c4nc32)cc1 (centres undefined),575 nM
22,CN(C)C(CNC(=O)CSc1nc2sc3c(c2c(=O)n1C)CCCC3)c1ccccc1 (centres undefined),387 nM

row,SMILES,AC26
1,COc1ccccc1NS(=O)(=O)c1ccc(C(=O)Nc2ncccc2O)cc1,7090 nM
2,CCOc1ccc(/C=C2\SC(N3CCCCC3)=NC2=O)cc1,1100 nM
3,O=C1OCC2=C1C(c1ccc3c(c1)OCO3)c1cc3c(cc1O2)OCO3 (centres undefined),661 nM
4,CC1=Nc2cc(C(=O)NCC3CCCO3)ccc2Sc2ccc(C)cc21 (centres undefined),662 nM
5,Cc1ccc(Cl)cc1N1CCN(S(=O)(=O)c2ccc(-c3ccc(=O)[nH]n3)o2)CC1,5210 nM
6,COc1cc(C(=O)N/N=C/c2ccc3c(c2)c2ccccc2n3C)ccc1O,4070 nM
7,C#CCCOC(=O)N1C2=NC(C(=O)OC)=C(C(=O)OC)[C@@H]3N(C)c4ccccc4[C@]23C[C@H]1C(=O)OC,479 nM
8,COc1cc(/C=N/NC(=O)c2ccc(CSc3nc4ccccc4[nH]3)cc2)cc(OC)c1OC,3980 nM
9,COc1cc(C2=NOC(C(=O)NCc3ccco3)C2)cc(OC)c1OC (centres undefined),1030 nM
10,c1ccc2c(c1)oc1c(-c3ccc4nccn4c3)cccc12,8270 nM
11,Cc1cc(C)nc(/N=C(\N)Nc2ccc(OCCC(C)C)cc2)n1,776 nM
12,NC(=O)CC(NC(=O)c1ccc(Br)cc1)c1ccc(N2CCCCCC2)c([N+](=O)[O-])c1 (centres undefined),1410 nM
13,COC(=O)c1ccc(C(=O)NC2CCCc3c2cnn3-c2ccccc2F)nc1 (centres undefined),4140 nM
14,COc1ccc(/C=C2\SC(=S)N(CCC(=O)NC3CCCC3)C2=O)cc1OC,6270 nM
15,Cn1c(=O)cc(OCCCC(=O)NC2CCCC2)c2ccccc21,2400 nM
16,Cc1cc(C)c2c(N)c3cccc(C)c3nc2n1,478 nM
17,CCN(CC)CCOc1ccc2c(c1)C(=NNC(=O)c1ccccn1)c1cc(OCCN(CC)CC)ccc1-2,530 nM
18,COc1ccc(C(=O)/C=C2/C(=O)Nc3ccccc32)cc1OC,714 nM
19,COc1cccc(C2=CC(c3cccc(OC)c3OC)n3nnnc3N2)c1 (centres undefined),1300 nM
20,Cn1c(=O)[nH]c(=O)c2c1nc(N1CCN(Cc3ccccc3)CC1)n2CCCc1ccccc1,436 nM
21,O=C(NCCc1ccc(F)cc1)c1coc(=O)c(Br)c1,413 nM
